Reference: patent EP3290412A1, “HIV-1 NUCLEOCAPSID INHIBITORS” (Università degli Studi di Siena, priority 2016, dated 2018)
Marks after values point to notes of the source that are not given here.

Legend:
HIV-DNA 2-LTR circles = assay: Quantification of 2-LTR products in infected MT-2 cells (real time PCR); assay type: cell-based, HIV-1; settings: for 2-LTR/HIV-DNA ratio drug vs no-drug: NL4-3 M.O.I. 0.05, 24 hours, drug 28 1000 nM, 31 3000 nM, 23 5000 nM, Raltegravir 1000 nM
Text: During the replication cycle of HIV, several forms of episomic HIV-DNA can be found in the nucleous as a result of abortive integration events in the genome of the cells. Unintegrated HIV-DNA forms such 2-LTR circles are considered as a marker of ongoing replication and can be easily detected and quantified through real time PCR systems. […] Therefore, the quantification of 2-LTR circles can be used as an indirect method to test the blockade of the integration step by a candidate or licensed integrase inhibitors (Reigadas S. et al, J. Antimicrob. Chemother. 2010; 65: 434-437).
Since NCp7 partecipates to several steps of HIV replication including integration, it was developed a cell based assay aimed at the quantification of 2-LTR circles in infected cells cultured in presence of inhibitory concentrations of candidate NCp7 inhibitors. In each culture 3x10^6 MT-2 cells were infected with HIV-1 reference strain NL4-3 at M.O.I. 0.05 in presence of investigational NCp7 inhibitors 23, 31, 28. A culture with the HIV-1 Integrase inhibitor Raltegravir™ was prepared as a reference for the inhibition of integration, while an infected culture without drugs (named "no-drug") was used to compare the amount of 2-LTR in the different cultures. Table 7 indicates the concentration of drugs used in each culture in comparison to the values of EC50 (calculated through the BiCycle Assay) and the values of TD50. Table 7. Concentration of drugs used [c] in comparison to the values of EC50 (calculated through the BiCycle Assay) and the values of TD50.
Cultures were incubated at 37°C and 5% CO2 for 24 hours, then cells were harvested and total DNA was extracted using the "MagCore® Genomic DNA Whole Blood Kit" automated system (Diatech).
Around 500 ng of extracted DNA were used in separated real time PCR reactions specific for the quantification of the total genomic and HIV-1 DNA, and the HIV-DNA 2-LTR circles, respectively. Both values were normalized as copies/10^6 cells according to β-globin gene quantification included in the first method. For each culture a ratio between 2-LTR/ total HIV-DNA circles was calculated and compared to the ratio obtained with the "no-drug" culture. Table 8. 2-LTR assay results

[1] = tested on: NIH Catalogue Number: 11842; settings: cited from earlier work
[2] = tested on: NIH Catalogue Number: 11845; settings: cited from earlier work

SMILES	2-LTR/HIV-DNA ratio drug vs no-drug (HIV-DNA 2-LTR circles)	Level of resistance ([1]; INI resistant strain 11842)	Fold change ([1]; strain 11842, resistant virus IC50 to wild-type reference virus IC50 ratio, cut-off in brackets)	titer / amounts of 2-LTR circles compared with "no-drug" culture (HIV-DNA 2-LTR circles; NL4-3, 24 hours)	Level of resistance ([2]; INI resistant strain 11845)	Fold change ([2]; strain 11845, resistant virus IC50 to wild-type reference virus IC50 ratio, cut-off in brackets)
Cc1cccnc1-c1nc(O)c(O)c(C(=O)N[C@H](C)C2CCCCC2)n1 [Compound 23, (R)-N-(1-cyclohexylethyl)-5,6-dihydroxy-2-(3-methylpyridin-2-yl)pyrimidine-4-carboxamide]	0.5					
COc1ccnc(-c2nc(O)c(O)c(C(=O)N[C@H](C)C3CCCCC3)n2)c1 [Compound 28, (R)-N-(1-cyclohexylethyl)-5,6-dihydroxy-2-(4-methoxypyridin-2-yl)pyrimidine-4-carboxamide]	1.3					
C[C@@H](NC(=O)c1nc(-c2nccc3ccccc23)nc(O)c1O)C1CCCCC1 [Compound 31, (R)-N-(1-cyclohexylethyl)-5,6-dihydroxy-2-(isoquinolin-1-yl)pyrimidine-4-carboxamide]	1.1					
Cc1nnc(C(=O)NC(C)(C)c2nc(C(=O)NCc3ccc(F)cc3)c(O)c(=O)n2C)o1 [Raltegravir™, Raltegravir, reference compound]	2.9	High resistance	96 (1.5^b)	three times higher	High resistance	>200 (1.5^b)
